Assay results from patent US7820706B2, “Multiple dose aromatase inhibitor for treating infertility” (Ares Trading S.A., priority 2001, dated 2010).
Counter-ions that a name gives are not always drawn. Like-named read-outs stand apart in the source and are kept apart here.

Assays:
[1] = molecular target: T1, aromatase (Homo sapiens, UniProt P11511); details: cited from earlier work
T1 sequence (P11511 1-503): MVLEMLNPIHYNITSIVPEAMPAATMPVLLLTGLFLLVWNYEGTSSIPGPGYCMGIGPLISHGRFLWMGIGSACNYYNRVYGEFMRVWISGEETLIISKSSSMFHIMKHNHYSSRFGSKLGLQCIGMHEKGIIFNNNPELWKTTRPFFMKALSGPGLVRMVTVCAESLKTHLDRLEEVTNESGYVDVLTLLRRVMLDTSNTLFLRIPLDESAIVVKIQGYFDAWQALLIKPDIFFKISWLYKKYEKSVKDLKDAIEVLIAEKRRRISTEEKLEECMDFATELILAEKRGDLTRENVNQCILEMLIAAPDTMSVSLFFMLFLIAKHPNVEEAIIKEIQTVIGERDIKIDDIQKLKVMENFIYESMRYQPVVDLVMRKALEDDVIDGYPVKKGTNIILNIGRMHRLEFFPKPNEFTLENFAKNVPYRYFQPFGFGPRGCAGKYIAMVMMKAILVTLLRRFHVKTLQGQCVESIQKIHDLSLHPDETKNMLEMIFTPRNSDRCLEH

[2] = system: women with PCOS; ovulatory women; details: cited from earlier work
[3] = system: rats; details: rat, in vivo; cited from earlier work
[4] = system: mature female rats; details: cited from earlier work
[5] = oral, healthy postmenopausal women; cited from earlier work
[6] = in vivo; cited from earlier work
[7] = system: patients who failed to ovulate or ovulated with endometrial thickness <5 mm in response to CC; assay: Example 1: letrozole for ovulation induction after CC failure; format: in vivo, human
Source text: HCG 10,000 IU was given to all except one patient to trigger ovulation. Ten patients completed 12 cycles (one patient completed three cycles).

[8] = molecular target: T2, aromatase (Rattus norvegicus, UniProt P22443); details: given orally; cited from earlier work
T2 sequence (P22443 1-508): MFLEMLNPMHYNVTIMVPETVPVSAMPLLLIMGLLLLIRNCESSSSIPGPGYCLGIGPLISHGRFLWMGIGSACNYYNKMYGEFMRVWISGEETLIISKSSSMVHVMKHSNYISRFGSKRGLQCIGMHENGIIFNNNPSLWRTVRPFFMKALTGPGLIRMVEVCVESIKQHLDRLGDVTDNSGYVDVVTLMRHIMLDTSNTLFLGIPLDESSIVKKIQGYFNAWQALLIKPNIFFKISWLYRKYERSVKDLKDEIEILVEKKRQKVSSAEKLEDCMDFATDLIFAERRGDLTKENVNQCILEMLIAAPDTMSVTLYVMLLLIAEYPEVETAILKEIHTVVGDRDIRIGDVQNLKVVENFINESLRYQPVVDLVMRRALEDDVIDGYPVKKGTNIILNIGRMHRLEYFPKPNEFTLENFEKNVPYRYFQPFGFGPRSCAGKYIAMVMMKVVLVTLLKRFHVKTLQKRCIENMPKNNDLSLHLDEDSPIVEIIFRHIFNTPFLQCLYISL

[9] = system: mice; details: mouse, in vivo; cited from earlier work
[10] = system: ovulatory women with unexplained infertility and anovulatory women with PCOS; details: cited from earlier work
[11] = system: patients who failed to ovulate or ovulated with endometrial thickness <5 mm in response to CC
Procedure: HCG 10,000 IU was given to trigger ovulation. CC was given in a dose of 50-100 mg on days 3-7 or 5-9.

[12] = system: patients with PCOS with inadequate response to CC; details: cited from earlier work
[13] = system: anovulatory women; details: cited from earlier work
[14] = system: endometrium of normal women; details: morphometric analysis; cited from earlier work
[15] = system: postmenopausal breast cancer patients; details: lethargy, rashes, nausea and fever; cited from earlier work

## CC(C)(C#N)c1cc(Cn2cncn2)cc(C(C)(C)C#N)c1 [anastrozole]
[1]
  in vivo inhibition of aromatase: 97%

## N#Cc1ccc(C(c2ccc(C#N)cc2)n2cncn2)cc1 [letrozole]
[2]; PCOS group, 3 patients
  pregnancy, patients: 25%
[2]; PCOS group, 9 of 12 cycles
  ovulation, cycles: 75%
[2]; ovulatory group, one patient
  pregnancy, patients: 10%
[2]; ovulatory group
  mean endometrial thickness: 0.8 cm
  mean number of mature follicles: 2.3
[3]
  lethal dose: approximately 2000 mg/kg
[4]
  FSH and LH: increased FSH and LH
  increase in ovarian weight: ~30%
[5]
  half-life: approximately 45 hours
[6]
  doses well tolerated: up to 30 mg
[7]; 4 out of 10 patients
  pregnancy, patients: 40%
[7]; 9 of 12 cycles, 2.5 to 5 mg/day
  ovulation, cycles: 75%
[7]; mean
  Endometrial Thickness: 0.8 Cm.
  Estradiol on day of HCG admin.: 1036 pmol
[7]; median
  Endometrial Thickness: 0.8 Cm.
  Estradiol on day of HCG admin.: 988 pmol
[7]; range
  Endometrial Thickness: 0.6-0.9 Cm.
  Follicles >1.5 Cm On day of HCG admin.: 1-3
[8]
  ED50 in vivo: 1 to 3 µg/kg
[9]
  lethal dose: approximately 2000 mg/kg
[10]; letrozole in conjunction with FSH
  FSH dose required for adequate ovarian super ovulation: significantly lower FSH dose
[10]; low responders during ovarian stimulation
  ovarian response to FSH stimulation: improvement in ovarian response to FSH stimulation
[11]; 5 out of 15 patients
  pregnancy, patients: 33%
[11]; 13 of 17 letrozole cycles
  ovulation, cycles: 77%
[11]; mean
  Endometrial Thickness: 0.8 Cm.
  Estradiol per mature follicle: 392 pmol/L
  Number of Days from last letrozole tablet to HCG day: 6.7
[11]; median
  Endometrial Thickness: 0.8 Cm.
  Estradiol per mature follicle: 289 pmol/L
  Number of Days from last letrozole tablet to HCG day: 7
[11]; range
  Endometrial Thickness: 0.6-1.1 Cm.
  Estradiol per mature follicle: 107 to 837 pmol/L
  Number of Days from last letrozole tablet to HCG day: 2-9
[12]; 7 of the 10 cycles, PCOS
  ovulation, letrozole treated cycles: 70%
[12]; 7 ovulatory cycles, mean
  mean number of mature follicles: 2.6
[12]; 7 ovulatory cycles, range
  number of mature follicles, range: 1 to 4 follicles
[12]; mean
  mean estradiol per follicle: 378 pmol/L
[12]; of 10 PCOS patients
  chemical pregnancy: one
  clinical pregnancy: 2 patients

## CCN(CC)CCOc1ccc(C(=C(Cl)c2ccccc2)c2ccccc2)cc1 [CC, clomiphene citrate]
[13]; doses up to 150 mg daily
  anovulatory women resistant to CC who fail to ovulate: 20% to 25%
[13]; in vivo
  women who do not ovulate with CC: 20 to 25%
[14]
  effect on the endometrium (glandular density, vacuolated cells): deleterious effect on the endometrium
[11]; mean
  Day of hCG administration: 12.6
  Endometrial Thickness: 0.5 Cm.
  Estradiol on day of hCG administration: 2145 pmol/L
  Estradiol per mature follicle: 1278 pmol/L
  Follicles >1.5 Cm on day of hCG administration: 1.9
  LH on day of hCG administration: 16 IU/L
  Number of Days from last letrozole tablet to HCG day: 4.4
[11]; median
  Day of hCG administration: 12
  Endometrial Thickness: 0.4 Cm.
  Estradiol on day of hCG administration: 1668 pmol/L
  Estradiol per mature follicle: 1486 pmol/L
  Follicles >1.5 Cm on day of hCG administration: 2
  LH on day of hCG administration: 8 IU/L
  Number of Days from last letrozole tablet to HCG day: 4
[11]; range
  Day of hCG administration: 11-16
  Endometrial Thickness: 0.4-0.8 Cm.
  Estradiol on day of hCG administration: 362 to 5210 pmol/L
  Estradiol per mature follicle: 177 to 2404 pmol/L
  Follicles >1.5 Cm on day of hCG administration: 1-5
  LH on day of hCG administration: 3-66 IU/L
  Number of Days from last letrozole tablet to HCG day: 2-7

## CCC1(c2ccc(N)cc2)CCC(=O)NC1=O (centres unmarked) [aminoglutethimide]
[15]
  patients stopping treatment because of side effects: 8-15%
